The values that follow are results of earlier work, collected in US20170157228A1, “Immunogenic Polypeptide Composed of HLA-B7 Restricted Tumor Antigen-Derived Optimized Cryptic Peptides, and Uses Thereof” (VAXON BIOTECH, priority 2014, published 2017).

This data set has as its system MAGE-A antigens / tumour cells. The following applies: recognition of cells loaded with MAGE-A273A6, MAGE-A273I6, MAGE-A273V6; cited from earlier work.

For GPRALVETL (7M1M), the “MAGE-A antigens targeted by elicited CTLs” value is “targeted six MAGE-A antigens (-A1, -A2, -A3, -A4, -A6, and -A12)”.
